Assay results reported in patent US20120100990A1, “4 -AMINOPICOLINATES AND THEIR USE AS HERBICIDES” (SYNGENTA CROP PROTECTION LLC, priority 2009, published 2012).

What was measured:
Type in all cases: in vivo
[1] = system: Alopecurus myosuroides (ALOMY); test: Post-emergence biological efficacy, glasshouse pot test; conditions: 312 h, 1,000 g/ha, evaluated after 13 days, 100=total damage, 0=no damage, read-out: Percentage damage caused to weed species, post-emergence, ALOMY
Protocol: (§1) Seeds of Alopecurus myosuroides (ALOMY), Setaria faberi (SETFA), Echinochloa crus-galli (ECHCG), Solanum nigrum (SOLNI), Amaranthus retroflexus (AMARE) and Ipomea hederaceae (IPOHE) were sown in standard soil in pots. After cultivation for 8 days under controlled conditions in a glasshouse (at 24/16° C., day/night; 14 hours light; 65% humidity), the plants were sprayed with an aqueous spray solution derived from the formulation of the technical active ingredient in acetone/water (50:50) solution containing 0.5% Tween 20 (polyoxyethylene sorbitan monolaurate, CAS RN 9005-64-5) to give a final dose of 1000 or 250 g/ha of test compound. The test plants were then grown on under controlled conditions in a glasshouse (at 24/16° C., day/night; 14 hours light; 65% humidity) and watered twice daily. After 13 days the test was evaluated (100=total damage to plant; 0=no damage to plant).

[2] = system: Setaria faberi (SETFA); test: as above; conditions: 312 h, 1,000 g/ha, evaluated after 13 days, 100=total damage, 0=no damage, read-out: Percentage damage caused to weed species, post-emergence, SETFA
Protocol: as §1

[3] = system: Ipomea hederaceae (IPOHE); test: as above; conditions: Ipomoea hederacea, 312 h, 1,000 g/ha, evaluated after 13 days, 100=total damage, 0=no damage, read-out: Percentage damage caused to weed species, post-emergence, IPOHE
Protocol: as §1

[4] = system: Amaranthus retroflexus (AMARE); test: as above; conditions: 312 h, 1,000 g/ha, evaluated after 13 days, 100=total damage, 0=no damage, read-out: Percentage damage caused to weed species, post-emergence, AMARE
Protocol: as §1

[5] = system: Echinochloa crus-galli (ECHCG); test: as above; conditions: 312 h, 1,000 g/ha, evaluated after 13 days, 100=total damage, 0=no damage, read-out: Percentage damage caused to weed species, post-emergence, ECHCG
Protocol: as §1

[6] = system: Solanum nigrum (SOLNI); test: as above; conditions: 312 h, 1,000 g/ha, evaluated after 13 days, 100=total damage, 0=no damage, read-out: Percentage damage caused to weed species, post-emergence, SOLNI
Protocol: as §1

[7] = system: Alopecurus myosuroides (ALOMY); test: Pre-emergence biological efficacy, glasshouse pot test; conditions: 312 h, 1,000 g/ha, evaluated after 13 days, 100=total damage, 0=no damage, read-out: Percentage damage caused to weed species, pre-emergence, ALOMY
Protocol: (§2) Seeds of Alopecurus myosuroides (ALOMY), Setaria faberi (SETFA), Echinochloa crus-galli (ECHCG), Solanum nigrum (SOLNI), Amaranthus retroflexus (AMARE) and Ipomea hederaceae (IPOHE) were sown in standard soil in pots. After cultivation for one day under controlled conditions in a glasshouse (at 24/16° C., day/night; 14 hours light; 65% humidity), the plants were sprayed with an aqueous spray solution derived from the formulation of the technical active ingredient in acetone/water (50:50) solution containing 0.5% Tween 20 (polyoxyethylene sorbitan monolaurate, CAS RN 9005-64-5) to give a final dose of 1000 or 250 g/ha of test compound. The test plants were then grown under controlled conditions in the glasshouse (at 24/16° C., day/night; 14 hours light; 65% humidity) and watered twice daily. After 13 days the test was evaluated (100=total damage to plant; 0=no damage to plant).

[8] = system: Setaria faberi (SETFA); test: as above; conditions: 312 h, 1,000 g/ha, evaluated after 13 days, 100=total damage, 0=no damage, read-out: Percentage damage caused to weed species, pre-emergence, SETFA
Protocol: as §2

[9] = system: Ipomea hederaceae (IPOHE); test: as above; conditions: Ipomoea hederacea, 312 h, 1,000 g/ha, evaluated after 13 days, 100=total damage, 0=no damage, read-out: Percentage damage caused to weed species, pre-emergence, IPOHE
Protocol: as §2

[10] = system: Amaranthus retroflexus (AMARE); test: as above; conditions: 312 h, 1,000 g/ha, evaluated after 13 days, 100=total damage, 0=no damage, read-out: Percentage damage caused to weed species, pre-emergence, AMARE
Protocol: as §2

[11] = system: Echinochloa crus-galli (ECHCG); test: as above; conditions: 312 h, 1,000 g/ha, evaluated after 13 days, 100=total damage, 0=no damage, read-out: Percentage damage caused to weed species, pre-emergence, ECHCG
Protocol: as §2

[12] = system: Solanum nigrum (SOLNI); test: as above; conditions: 312 h, 1,000 g/ha, evaluated after 13 days, 100=total damage, 0=no damage, read-out: Percentage damage caused to weed species, pre-emergence, SOLNI
Protocol: as §2

Compound	pest or weed control at 1000 g/ha [1]	pest or weed control at 1000 g/ha [2]	pest or weed control at 1000 g/ha [3]	pest or weed control at 1000 g/ha [4]	pest or weed control at 1000 g/ha [5]	pest or weed control at 1000 g/ha [6]	pest or weed control at 1000 g/ha [7]	pest or weed control at 1000 g/ha [8]	pest or weed control at 1000 g/ha [9]	pest or weed control at 1000 g/ha [10]	pest or weed control at 1000 g/ha [11]	pest or weed control at 1000 g/ha [12]
COC(=O)c1nc(Cl)cc(NCC2CC2)c1Cl [Compound 1-2, 4-Cyclopropylmethyl-amino-3,6-dichloro-pyridine-2-carboxylic acid methyl ester]	90%	90%	80%	100%	70%	90%	80%	90%	100%	100%	90%	100%
C=Cc1c(NCC2CC2)cc(Cl)nc1C(=O)OC [Compound 1-12, 6-chloro-4-cyclopropylmethylamino-3-ethenyl-pyridine-2-carboxylic acid methyl ester]	70%	90%	70%	100%	80%	90%	80%	90%	90%	100%	90%	100%
COC(=O)c1nc(Cl)cc(NCc2ccccc2)c1Cl [Compound 2-2, 3,6-Dichloro-4-phenylmethyl-amino-pyridine-2-carboxylic acid methyl ester]	50%	80%	70%	100%	60%	100%	60%	80%	90%	100%	30%	100%
C=Cc1c(NCc2ccccc2)cc(Cl)nc1C(=O)OC [Compound 2-12, 6-Chloro-3-ethenyl-4-phenylmethyl-amino-pyridine-2-carboxylic acid methyl ester]	60%	80%	70%	100%	50%	100%	80%	80%	80%	100%	30%	100%
C=Cc1c(NCc2ccccc2Cl)cc(Cl)nc1C(=O)OC [Compound 3-12, 6-Chloro-4-[(2-chlorophenyl-methyl)-amino]-3-ethenyl-pyridine-2-carboxylic acid methyl ester]	0%	10%	40%	100%	20%	90%	20%	10%	50%	100%	0%	90%
COC(=O)c1nc(Cl)cc(NCc2ccc(Cl)cc2)c1Cl [Compound 5-2, 4-[(4-Chlorophenyl-methyl)-amino]-3,6-dichloro-pyridine-2-carboxylic acid methyl ester]	50%	70%	70%	100%	50%	100%	20%	50%	90%	100%	10%	100%
COC(=O)c1nc(Cl)cc(NCc2ccccc2F)c1Cl [Compound 6-2, 3,6-Dichloro-4-[(2-fluorophenylmethyl)-amino]-pyridine-2-carboxylic acid methyl ester]	60%	90%	70%	100%	40%	100%	70%	80%	90%	100%	60%	100%
C=Cc1c(NCc2ccccc2F)cc(Cl)nc1C(=O)OC [Compound 6-12, 6-Chloro-3-ethenyl-4-[(2-fluorophenyl-methyl)-amino]-pyridine-2-carboxylic acid methyl ester]	20%	80%	70%	100%	20%	90%	40%	40%	60%	100%	30%	100%
COC(=O)c1nc(Cl)cc(NCc2cccc(F)c2)c1Cl [Compound 7-2, 3,6-Dichloro-4-[(3-fluorophenylmethyl)-amino]-pyridine-2-carboxylic acid methyl ester]	50%	90%	80%	100%	50%	100%	50%	80%	100%	100%	50%	100%
C=Cc1c(NCc2c(Cl)cccc2Cl)cc(Cl)nc1C(=O)OC [Compound 21-12, 6-Chloro-4-[(2,6-dichlorophenyl-methyl)-amino]-3-ethenyl-pyridine-2-carboxylic acid methyl ester]	20%	0%	30%	100%	10%	80%	0%	0%	30%	100%	0%	
